According to patent publication US4172829A, “2,9-Disubstituted adenine derivatives and their use as non-adrenergic bronchodilators” (Bristol-Myers Company, priority 1978, dated 1979):
Values after ≈ are worked out from the molar mass of the structure shown.

Key:
[1] = system: Tracheal chains of guinea pig; assay: In vitro bronchodilator activity, isolated tracheal chain (ITC); type: cell-based; settings: Cavia porcellus, relaxation 50% of the maximum response to 0.1 mcg./ml. of isoproterenol
Experimental: Tracheal chains of guinea pig were prepared by the method described by A. Akcasu in Arch. Int. Pharmacodyn. Ther., 122, 201 (1959). The response to each test compound was recorded by the Magnus method and expressed as a percentage of the maximum response obtained with 0.1 mcg./ml. of isoproterenol prior to each experiment.

[2] = system: intratracheal pressure (ITP) of guinea pig; assay: In vivo bronchodilator activity, intratracheal pressure test (ITP); settings: Cavia porcellus, 50% decrease in intratracheal pressure
Experimental: (§1) The trachea of anesthetized guinea pig was cannulated and the ITP recorded on a polygraph under artificial ventilation. Arterial blood pressure (ABP; measure of hypotensive activity) was also measured during the experiment. Data was obtained for both intravenous and intraduodenal administration.

[3] = system: Arterial blood pressure (ABP); assay: In vivo hypotensive activity, arterial blood pressure (ABP); parameters: species or system guinea pig; settings: arterial blood pressure lowering, ED20, reduces ABP by 20%
Experimental: as §1, with “Pharmac., 21, 379 (1969). The” for “The”

[4] = Separation of bronchodilator and cardiovascular effects (ABP/ITP); settings: guinea pig, in vivo, ratio of hypotensive ED20 / bronchodilating ED50
Experimental: To assess the separation of desirable bronchodilator activity from undesirable cardiovascular (hypotensive) effect in the test compounds, the ratio of hypotensive ED20 /bronchodilating ED50 was calculated and indicated in Table 1.

bronchial constriction = settings: prior art; bronchial asthma; cited from earlier work
[5] = known disadvantages, prior art; cited from earlier work
[6] = prior art; cited from earlier work
platelet aggregation = settings: Chem Pharm. Bull., 25(7), 1811-1821 (1977); cited from earlier work

Row | SMILES | EC50 [1] [µg/mL] | ED50 ([2]; intraduodenal) [mg/kg] | ED50 ([2]; intravenous) [mg/kg] | ED20 ([3]; intraduodenal) [mg/kg] | ED20 ([3]; intravenous) [mg/kg] | selectivity ratio ([4]; intraduodenal) | selectivity ratio ([4]; intravenous) | bronchodilator activity (in words) (bronchial constriction) | side effects (in words) [5] | solubility (in words) [6] | inhibition of platelet aggregation (in words) (platelet aggregation)
1 | CCCCOc1nc(N)c2ncn(C3CCCCC3)c2n1 [n-C4 H9 O / drawing 30, 2-n-Butoxy-9-cyclohexyl-9H-adenine] | 0.025 (≈ 0.0864 µM) | 1.4 | 0.003 | 8.3 | 4.4 | 5.9 | 1470 | – | – | – | –
2 | CC(C)COc1nc(N)c2ncn(C3CCCCC3)c2n1 [isO-C4 H9 O / drawing 30, 2-Isobutoxy-9-cyclohexyl-9H-adenine] | 0.31 (≈ 1.07 µM) | – | > 3 | – | > 3 | – | – | – | – | – | –
3 | CCCCOc1nc(N)c2ncn(C3C=CCCC3)c2n1 (stereo not shown) [n-C4 H9 O / drawing 31, 9-(2-Cyclohexenyl)-2-n-butoxy-9H-adenine] | 0.045 (≈ 0.157 µM) | – | 0.65 | – | > 3 | – | > 4.8 | – | – | – | –
4 | CC(C)COc1nc(N)c2ncn(C3C=CCCC3)c2n1 (stereo not shown) [iso-C4 H9 O / drawing 31, 9-(2-Cyclohexenyl)-2-isobutoxy-9H-adenine] | 0.41 (≈ 1.43 µM) | – | > 3 | – | 2.4 | – | – | – | – | – | –
5 | CCCOc1nc(N)c2ncn(C3C=CCCC3)c2n1 (stereo not shown) [n-C3 H7 O / drawing 31, 9-(2-Cyclohexenyl)-2-n-propoxy-9H-adenine] | 0.027 (≈ 0.0988 µM) | 1.2 | 0.34 | 2.4 | 2.0 | 2 | 5.9 | – | – | – | –
6 | CCCCCOc1nc(N)c2ncn(C3CCCCC3)c2n1 [n-C5 H11 O / drawing 30, 2-n-Pentyloxy-9-cyclohexyl-9H-adenine] | 1.8 (≈ 5.93 µM) | – | > 3 | – | > 3 | – | – | – | – | – | –
7 | Cn1c(=O)c2[nH]cnc2n(C)c1=O [aminophylline] | 16.6 (≈ 92.1 µM) | – | – | – | – | – | – | effective bronchodilator when given orally | gastric irritation and cardiovascular and central nervous system side effects | readily soluble | –
8 | CCCCCOc1nc(N)c2ncn(C3C=CCCC3)c2n1 (stereo not shown) [n-C5 H11 O / drawing 31, 9-(2-Cyclohexenyl)-2-n-pentyloxy-9H-adenine] | 0.59 (≈ 1.96 µM) | – | > 3 | – | > 3 | – | – | – | – | – | –
9 | CCCCCCOc1nc(N)c2ncn(C3C=CCCC3)c2n1 (stereo not shown) [n-C6 H13 O / drawing 31, 9-(2-Cyclohexenyl)-2-n-hexyloxy-9H-adenine] | > 3 | – | > 3 | – | 2.7 | – | – | – | – | – | –
10 | Nc1nc(SC2CCCC2)nc2c1ncn2C1CCCC1 | – | – | – | – | – | – | – | – | – | – | slightly effective
11 | Cn1c(=O)c2[nH]cnc2n(C)c1=O [Theophylline] | – | – | – | – | – | – | – | potent and useful non-adrenergic bronchodilator | – | – | –

Further lines, with some results ahead:

Row | EC50 [1] [µg/mL] | SMILES | ED50 ([2]; intraduodenal) [mg/kg] | ED50 ([2]; intravenous) [mg/kg] | ED20 ([3]; intraduodenal) [mg/kg] | ED20 ([3]; intravenous) [mg/kg] | selectivity ratio ([4]; intraduodenal) | selectivity ratio ([4]; intravenous) | bronchodilator activity (in words) (bronchial constriction) | side effects (in words) [5] | solubility (in words) [6] | inhibition of platelet aggregation (in words) (platelet aggregation)
12 | 0.088 (≈ 0.339 µM) | CCOc1nc(N)c2ncn(C3C=CCCC3)c2n1 (stereo not shown) [C2 H5 O / drawing 31, 9-(2-Cyclohexenyl)-2-ethoxy-9H-adenine] | 0.62 | 0.33 | 12 | 4.0 | 19 | 12 | – | – | – | –
13 | 0.12 (≈ 0.481 µM) | Nc1nc(Cl)nc2c1ncn2C1C=CCCC1 (stereo not shown) [Cl / drawing 31, 2-Chloro-9-(2-cyclohexenyl)-9H-adenine] | – | 0.15 | – | 2.5 | – | 17 | – | – | – | –
14 | 0.026 (≈ 0.0944 µM) | CCCOc1nc(N)c2ncn(C3CCCCC3)c2n1 [n-C3 H7 O / drawing 30, 9-Cyclohexyl-2-n-propoxy-9H-adenine] | 1.2 | 0.37 | 18 | 4.4 | 15 | 12 | – | – | – | –
15 | 0.18 (≈ 0.689 µM) | CCOc1nc(N)c2ncn(C3CCCCC3)c2n1 [C2 H5 O / drawing 30, 2-Ethoxy-9-cyclohexyl-9H-adenine] | – | 0.37 | – | 2.5 | – | 6.8 | – | – | – | –
16 | 1.4 (≈ 4.41 µM) | CCCCCCOc1nc(N)c2ncn(C3CCCCC3)c2n1 [n-C6 H13 O / drawing 30, 2-n-Hexyloxy-9-cyclohexyl-9H-adenine] | – | > 3 | – | > 3 | – | – | – | – | – | –
